Results published in article PMC8600089, “The development of a high-affinity conformation-sensitive antibody mimetic using a biocompatible copolymer carrier (iBody)” (The Journal of Biological Chemistry, 2021).
Read-outs that look alike come from different tables or passages of the source. Starred links: 1 amine or outer side, 2 acyl side, 3 side chain; linkers in the order of their positions; H or OH if unused. Positions of bridges follow the written chain, without caps; N, C: chain ends. Residues, ends and D or L forms follow the SMILES beside them. Groups on a side chain read outwards from the residue. *: point of attachment. PEG12 = NCCOCCOCCOCCOCCOCCOCCOCCOCCOCCOCCOCCOCCC(=O)O; Biotin = O=C1N[C@H]2[C@H](CS[C@H]2CCCCC(=O)*)N1; TBMB = c1c(C[*:1])cc(C[*:3])cc1C[*:2]

Tests used:
[1] = target: T1, recombinant extracellular part of PSMA (Homo sapiens, UniProt Q04609); assay: Competition ELISA: iBody 1 binding to PSMA versus PSMA inhibitors
PSMA (AviPSMA) = PSMA (AviPSMA) (Homo sapiens, UniProt Q04609); assay: PSMA activity assay (HPLC, substrate pteroyl-di-L-glutamate); assay type: biochemical
[2] = target: T1, recombinant extracellular part of PSMA; assay: ELISA with immobilized PSMA

T1 sequence (Q04609 44-750 limits assumed): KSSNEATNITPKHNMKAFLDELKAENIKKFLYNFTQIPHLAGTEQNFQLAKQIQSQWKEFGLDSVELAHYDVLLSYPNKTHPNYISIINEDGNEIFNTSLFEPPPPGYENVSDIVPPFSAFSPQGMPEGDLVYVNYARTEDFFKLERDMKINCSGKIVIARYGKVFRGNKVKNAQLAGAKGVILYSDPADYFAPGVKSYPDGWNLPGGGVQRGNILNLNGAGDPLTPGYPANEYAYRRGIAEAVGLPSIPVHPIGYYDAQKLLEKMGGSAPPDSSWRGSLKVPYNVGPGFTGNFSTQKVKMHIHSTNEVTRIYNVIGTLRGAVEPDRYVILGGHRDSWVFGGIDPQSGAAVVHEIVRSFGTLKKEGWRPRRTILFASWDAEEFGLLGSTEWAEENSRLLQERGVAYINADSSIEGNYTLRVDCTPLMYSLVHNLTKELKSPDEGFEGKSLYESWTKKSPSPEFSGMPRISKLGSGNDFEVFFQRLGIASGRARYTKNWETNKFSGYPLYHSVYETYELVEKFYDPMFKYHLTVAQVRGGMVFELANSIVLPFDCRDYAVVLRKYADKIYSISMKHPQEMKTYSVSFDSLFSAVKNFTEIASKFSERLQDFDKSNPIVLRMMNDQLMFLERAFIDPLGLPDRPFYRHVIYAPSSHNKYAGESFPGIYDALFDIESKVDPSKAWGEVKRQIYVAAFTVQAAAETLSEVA
PSMA (AviPSMA), sequence (Q04609 44-750 limits assumed): as above

## O=C(O)CCC(CP(=O)(O)O)C(=O)O (centres unmarked) [2-PMPA, 2-(phosphonomethyl)pentane-1,5-dioic acid]
[1]
  competition with binding of iBody 1 to PSMA on ELISA (in words): outcompeted

## CC(=O)N[C@H]1CSCc2cc3cc(c2)CSC[C@H](NC(=O)[C@H](CCC(=O)O)NC(=O)[C@H](CC(=O)O)NC(=O)[C@H](CC(=O)O)NC1=O)C(=O)N1CCC[C@H]1C(=O)N[C@@H](CC(=O)O)C(=O)N[C@@H](Cc1ccc(O)cc1)C(=O)N[C@@H](C(C)C)C(=O)N[C@H](C(=O)NCC(=O)NCC(=O)N[C@@H](CO)C(=O)NCC(=O)N[C@@H](CCCCNC(=O)CCOCCOCCOCCOCCOCCOCCOCCOCCOCCOCCOCCOCCNC(=O)CCCC[C@@H]1SC[C@@H]2NC(=O)N[C@@H]21)C(N)=O)CSC3 [Peptide 1] (Ac-CDDECPDYVCGGSGK([PEG12-Biotin])-NH2; linker 1-5-10 via TBMB)
PSMA (AviPSMA); cell gives μM under a head in nM, 20-min incubation, 37 °C, n = 3
  IC50: > 50 µM
PSMA (AviPSMA); in 50μM
  inhibition at 50 µM: 10%
[2]
  EC50: > 5 µM

## phosphate
[1]; iBody 1 (5 nM per legend), inhibitor pre-incubated 30 min, then iBody 60 min at RT, representative of >3 experiments, n = 3
  competition with binding of iBody 1 to PSMA on ELISA (in words): outcompeted

## poly(HPMA-co-Ma-β-Ala-ATTO488-co-Ma-β-Ala-NH-ED-biotin) [iBody 3, reference compound]
[2]; 8 nM iBody
  Ratio: value on layer with PSMA divided by value on layer lacking PSMA: 0.9
[2]; 40 nM iBody
  Ratio: value on layer with PSMA divided by value on layer lacking PSMA: 1.3
[2]; 200 nM iBody
  Ratio: value on layer with PSMA divided by value on layer lacking PSMA: 1.1
[2]; 1000 nM iBody
  Ratio: value on layer with PSMA divided by value on layer lacking PSMA: 0.8
[2]; 5000 nM iBody
  Ratio: value on layer with PSMA divided by value on layer lacking PSMA: 0.8
[2]; ELISA, layer with vs without PSMA
  specific binding to immobilized PSMA compared with control layer (in words): no specific binding
